# Experimental data as given in patent publication EP4806898A1, “HETEROARYL DERIVATIVE COMPOUND AND USE THEREOF” (Voronoi Inc., priority 2023, dated 2025).
# Where two headings read alike, the source gives them in different places.
# Tests used:
# recombinant USP1 protein = target: T1, recombinant USP1 protein (Homo sapiens, UniProt O94782, DEL125-138/DEL229-408/DEL608-737); assay: Binding affinity to recombinant USP1 protein by differential scanning fluorimetry; settings: compound 100 µM, 0.03 mg/mL USP1 (Δ1-66, Δ125-138, Δ229-408, Δ608-737), Tm with compound minus Tm with DMSO; for ΔTm at 100 µM: read-out: ΔTm (°C)
# T1 sequence (O94782 with tags, fused parts or gaps DEL125-138/DEL229-408/DEL608-737): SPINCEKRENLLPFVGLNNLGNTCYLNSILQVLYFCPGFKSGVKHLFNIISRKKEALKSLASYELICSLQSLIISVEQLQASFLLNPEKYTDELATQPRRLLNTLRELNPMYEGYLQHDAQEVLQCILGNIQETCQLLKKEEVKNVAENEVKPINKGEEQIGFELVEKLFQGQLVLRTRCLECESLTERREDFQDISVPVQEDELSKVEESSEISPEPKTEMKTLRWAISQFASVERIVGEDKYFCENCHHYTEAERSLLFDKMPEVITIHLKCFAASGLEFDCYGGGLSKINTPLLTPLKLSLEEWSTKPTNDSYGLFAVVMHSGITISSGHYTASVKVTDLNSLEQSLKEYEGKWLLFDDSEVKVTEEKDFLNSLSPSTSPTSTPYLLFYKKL
# Description: <Experimental Example 1> Confirmation and evaluation of the binding affinity to recombinant USP1 protein
# To evaluate the binding affinity of the compounds of the present invention to the USP1 protein, the following experiment was performed using differential scanning fluorimetry.
# Recombinant 0.03 mg/mL USP1 (Δ1-66, Δ125-138, Δ229-408, Δ608-737) protein, dye reagent, and buffer solution (50 mM Tris-HCl pH 8.0, 150 mM NaCl, 2% glycerol, 1 mM DTT) were mixed and 19 µL of the mixture was dispensed into a well plate (MicroAmp Fast 96-Well Reaction plate, 0.1 mL). Each compound was injected at a final concentration of 100 µM in an amount of 1 µL, and the plate containing a total of 20 µL was sealed with MicroAmp Optical Adhesive Film. The melting temperature (Tm) of the protein in each well was measured using a real-time PCR (RT-PCR) device. The difference between the Tm of the sample containing the compound and the Tm containing DMSO is referred to as delta Tm (ΔTm), where a larger ΔTm value indicates stronger binding affinity. The degree of temperature at which the protein is modified in the presence of the compound compared to DMSO was calculated according to Equation 1 below: [formula]
# UWB1.289 cells = assay: Cell proliferation inhibitory activity in BRCA1/2-mutant or HRD-positive cells (Cell Titer-Glo); assay type: cell-based; settings: UWB1.289 cells, 144 hours after compound treatment, Cell Titer-Glo, 1.5 nM to 10 µM, read-out: GI50 UWB1.289 BRCA1 mut
# Description: <Experimental Example 2> Evaluation of Cell Proliferation Inhibitory Activity in BRCA1/2-Mutant or HRD-Positive Cells
# To evaluate the inhibitory activity of the compound according to the present invention on the proliferation of BRCA1/2 mutants or homologous recombination deficient (HRD) positive cell lines, the following experiments were performed. UWB1.289 cells were cultured in medium (50% MEBM + 50% RPMI1640), and 1,000 cells were seeded in a well plate (black clear bottom 96-well plate, Corning) 16 to 24 hours prior to compound treatment. The compounds were diluted in dimethyl sulfoxide (3-fold serial dilution starting at 10 µM, for a total of 10 concentrations) and injected at 1 µl per well, resulting a final concentration range of […] to 10 µM. Measurements of live cells were performed by a reaction in a 37 °C and CO2 incubator for 144 hours after compound treatment. The cells were incubated for 10 minutes in an incubator using Cell Titer-Glo luminescent cell-viability reagent (Promega), and luminescence intensity thereof was measured using a reader (SynergyNeo2, Biotek). GI50 values were calculated using the GraphPad Prism version 8.4.3 (GraphPad software Inc., San Diego) program.
ΔTm at 100 µM (recombinant USP1 protein),Compound,GI50 (UWB1.289 cells; UWB1289),also measured
> 5 °C,"COc1ncnc(C2CC2)c1-c1ncc2cc(C(=O)N(C)C)n(Cc3ccc(-c4nc(C(F)(F)F)cn4C(C)C)cc3)c2n1 [Example 5, 2-(4-cyclopropyl-6-methoxypyrimidin-5-yl)-7-(4-(1-isopropyl-4-(trifluoromethyl)-1H-imidazol-2-yl)benzyl)-N,N-dimethyl-7H-pyrrolo[2,3-d]pyrimidine-6-carboxamide]",< 100 nM,–
> 5 °C,"COc1ncnc(C2CC2)c1-c1ncc2cc(C(=O)NO)n(Cc3ccc(-c4nc(C(F)(F)F)cn4C(C)C)cc3)c2n1 [Example 120, 2-(4-cyclopropyl-6-methoxypyrimidin-5-yl)-N-hydroxy-7-(4-(1-isopropyl-4-(trifluoromethyl)-1H-imidazol-2-yl)benzyl)-7H-pyrrolo[2,3-d]pyrimidine-6-carboxamide]",–,–
> 5 °C,"COCCN1CC[C@@H](NC(=O)c2cc3cnc(-c4c(OC)ncnc4C4CC4)nc3n2Cc2ccc(-c3nc(C(F)(F)F)cn3C)cc2)[C@@H](F)C1 [Example 160, 2-(4-cyclopropyl-6-methoxypyrimidin-5-yl)-N-((3S,4R)-3-fluoro-1-(2-methoxyethyl)piperidin-4-yl)-7-(4-(1-methyl-4-(trifluoromethyl)-1H-imidazol-2-yl)benzyl)-7H-pyrrolo[2,3-d]pyrimidine-6-carboxamide]",–,–
> 5 °C,"COc1ncnc(C2CC2)c1-c1ncc2cc(C(=O)N3CCCC3)n(Cc3ccc(-c4nc(C(F)(F)F)cn4C)cc3)c2n1 [Example 192, (2-(4-cyclopropyl-6-methoxypyrimid in-5-yl)-7-(4-(1-methyl-4-(trifluoromethyl)-1H-imidazol-2-yl)benzyl)-7H-pyrrolo[2,3-d]pyrimidin-6-yl) (pyrrolidin-1-yl)methanone]",–,–
< 5 °C,"CNC(=O)c1cc2cnc(-c3c(O)ncnc3C3CC3)nc2n1Cc1ccc(-c2nc(C(F)(F)F)cn2C)cc1 [Example 206, 2-(4-cyclopropyl-6-hydroxypyrimidin-5-yl)-N-methyl-7-(4-(1-methyl-4-(trifluoromethyl)-1H-imidazol-2-yl)benzyl)-7H-pyrrolo[2,3-d]pyrimidine-6-carboxamide]",–,–
< 5 °C,"CNC(=O)c1cc2cnc(-c3c(OC)ncnc3C3CC3)nc2n1CC12CCC(c3nc(C(F)(F)F)cn3C(C)C)(CC1)CO2 [Example 226, 2-(4-cyclopropyl-6-methoxypyrimidin-5-yl)-7-(((1s,4s)-4-(1-isopropyl-4-(trifluoromethyl)-1H-imidazol-2-yl)-2-oxabicyclo[2.2 .2]octan-1-yl)methyl)-N-methyl-7H-pyrrolo[2,3-d]pyrimidine-6-carboxamide]",–,–

# Second part, the compound before the results:
Compound,ΔTm at 100 µM (recombinant USP1 protein),GI50 (UWB1.289 cells; UWB1289),also measured
"2-(4-cyclopropyl-6-ethoxypyrimidi n-5-yl)-7-(4-(1-isopropyl-4-(trifluorometh yl)-1H-imidazol-2-yl)benzyl)-N-methyl-7H-pyrrolo[2,3-d]pyrimidine-6-carboxamide [Example 63]",–,–,ΔTm (°C) (recombinant USP1 protein): A (ΔTm (°C) > 5 °C); GI50 (UWB1.289 cells): < 100 nM
"2-(4-cyclopropyl-6-methoxypyrimid in-5-yl)-N-((3,3-difluorocyclob utyl)methyl) - 7-(4-(1-isopropyl-4-(trifluorometh yl)-1H-imidazol-2-yl)benzyl)-7H-pyrrolo[2,3-d]pyrimidine-6-carboxamide [Example 84]",–,–,GI50 (UWB1.289 cells): 100 to 500 nM
"CNC(=O)c1cc2cnc(-c3c(OC)ncnc3C3CC3)nc2n1Cc1ccc(-c2nc(C(F)(F)F)cn2C(C)C)cc1 [Example 1, 2-(4-cyclopropyl-6-methoxypyrimidin-5-yl)-7-(4-(1-isopropyl-4-(trifluoromethyl)-1H-imidazol-2-yl)benzyl)-N-methyl-7H-pyrrolo[2,3-d]pyrimidine-6-carboxamide]",> 5 °C,< 100 nM,–
"CNC(=O)c1cc2cnc(-c3ccccc3C(C)C)nc2n1Cc1ccc(-c2nc(C(F)(F)F)cn2C(C)C)cc1 [Example 2, 7-(4-(1-isopropyl-4-(trifluoromethyl)-1H-imidazol-2-yl)benzyl)-2-(2-isopropylphenyl)-N-methyl-7H-pyrrolo[2,3-d]pyrimidine-6-carboxamide]",> 5 °C,< 100 nM,–
"[2H]C([2H])([2H])Oc1ncnc(C2CC2)c1-c1ncc2cc(C(=O)NC)n(Cc3ccc(-c4nc(C(F)(F)F)cn4C(C)C)cc3)c2n1 [Example 3, 2-(4-cyclopropyl-6-(methoxy-d3)pyrimidin-5-yl)-7-(4-(1-isopropyl-4-(trifluoromethyl)-1H-imidazol-2-yl)benzyl)-N-methyl-7H-pyrrolo[2,3-d]pyrimidine-6-carboxamide]",> 5 °C,< 100 nM,–
"CCNC(=O)c1cc2cnc(-c3c(OC)ncnc3C3CC3)nc2n1Cc1ccc(-c2nc(C(F)(F)F)cn2C(C)C)cc1 [Example 4, 2-(4-cyclopropyl-6-methoxypyrimidin-5-yl)-N-ethyl-7-(4-(1-isopropyl-4-(trifluoromethyl)-1H-imidazol-2-yl)benzyl)-7H-pyrrolo[2,3-d]pyrimidine-6-carboxamide]",> 5 °C,< 100 nM,–
"COc1ncnc(C2CC2)c1-c1ncc2cc(C(=O)NCCN3CCOCC3)n(Cc3ccc(-c4nc(C(F)(F)F)cn4C(C)C)cc3)c2n1 [Example 6, 2-(4-cyclopropyl-6-methoxypyrimidin-5-yl)-7-(4-(1-isopropyl-4-(trifluoromethyl)-1H-imidazol-2-yl)benzyl)-N-(2-morpholinoethyl)-7H-pyrrolo[2,3-d]pyrimidine-6-carboxamide]",> 5 °C,< 100 nM,–
"CC[C@@H](C)NC(=O)c1cc2cnc(-c3c(OC)ncnc3C3CC3)nc2n1Cc1ccc(-c2nc(C(F)(F)F)cn2C(C)C)cc1 [Example 92, (R)-N-(sec-butyl)-2-(4-cyclopropyl-6-methoxypyrimidin-5-yl)-7-(4-(1-isopropyl-4-(trifluoromethyl)-1H-imidazol-2-yl)benzyl)-7H-pyrrolo[2,3-d]pyrimidine-6-carboxamide]",–,< 100 nM,–
"COc1ncnc(C2CC2)c1-c1ncc2cc(C(=O)NC[C@H]3CCCN3C)n(Cc3ccc(-c4nc(C(F)(F)F)cn4C(C)C)cc3)c2n1 [Example 136, (R) -2-(4-cyclopropyl-6-methoxypyrimidin-5-yl)-7-(4-(1-isopropyl-4-(trifluoromethyl)-1H-imidazol-2-yl)benzyl)-N-((1-methylpyrrolidin-2-yl)methyl)-7H-pyrrolo[2,3-d]pyrimidine-6-carboxamide]",–,< 100 nM,–
"COc1ncnc(C2CC2)c1-c1ncc2cc(C(N)=O)n(Cc3ccc(-c4nc(C(F)(F)F)cn4C)cc3)c2n1 [Example 148, 2-(4-cyclopropyl-6-methoxypyrimidin-5-yl)-7-(4-(1-methyl-4-(trifluoromethyl)-1H-imidazol-2-yl)benzyl)-7H-pyrrolo[2,3-d]pyrimidine-6-carboxamide]",–,< 100 nM,–
"COc1ncnc(C2CC2)c1-c1ncc2cc(C(=O)NC3CCNCC3)n(Cc3ccc(-c4nc(C(F)(F)F)cn4C(C)C)cc3)c2n1 [Example 159, 2-(4-cyclopropyl-6-methoxypyrimidin-5-yl)-7-(4-(1-isopropyl-4-(trifluoromethyl)-1H-imidazol-2-yl)benzyl)-N-(piperidin-4-yl)-7H-pyrrolo[2,3-d]pyrimidine-6-carboxamide]",–,100 to 500 nM,–
"CNC(=O)c1cc2cnc(-c3c(OC)ncnc3C3CC3)nc2n1Cc1ccc(-n2nc(C(F)(F)F)cc2C(=O)O)cc1 [Example 213, 1-(4-((2-(4-cyclopropyl-6-methoxypyrimidin-5-yl)-6-(methylcarbamoyl)-7H-pyrrolo[2,3-d]pyrimidin-7-yl)methyl)phenyl)-3-(trifluoromethyl)-1H-pyrazol-5-carboxylic acid]",< 5 °C,–,–
